Source: patent US9771343B2, “2-alkyl-or-aryl-substituted tanshinone derivatives, and preparation method and application thereof” (Hangzhou Bensheng Pharmaceutical Co., Ltd., priority 2011, dated 2017)
In brackets after ≈: the same amount, converted by molar mass. One block for each compound: values may come before it.

Key:
[1] = system: MGC 803 (human gastric cancer cell); test: MTT cell growth inhibition, MGC 803 cells, 72 h; type: cell-based; details: Homo sapiens, MGC-803, 72 h; for IC50: read-out: IC50; for IC90: read-out: IC90
Experimental: (§1) The standard sample of tanshinone I (TA) and the 2-alkyl- or 2-aromatic-substituted tanshinone I derivatives of the present invention are sufficiently dissolved in dimethylsulfoxide to produce a stock solution of 10 mg/mL, which is refrigerated at 4° C. and stored in dark, and is diluted with a cell culture medium to the desired concentration prior to experimentation.
(§2) Obtaining 6000 well-growing human solid tumor cells and inoculating them into wells of a 96-well cell culture plate. The culture medium is DMEM High Glucose cell culture medium containing 10% fetal bovine serum. The plate is placed in a carbon dioxide cell incubator (5% CO2) at 37° C. and incubated for 24 hours. After adding the 2-alkyl- or 2-aromatic-substituted tanshinone I derivatives of different concentrations and mixing uniformly, the plate is placed in a carbon dioxide cell incubator (5% CO2) at 37° C. and incubated for 72 hours. Then the viable cell concentration is determined by MTT method. In this experiment, the cell viability in control group (not treated with any compound) is set as 100%, and the cell viability (%) after treatment by the compounds and the half maximum inhibitory concentration for the leukemia cell at 72 hours (IC50 value of 72 hours, μg/mL) are calculated.

[2] = system: Kasumi-1 (acute myeloid leukemia M2 type, AML-M2); test: MTT cell growth inhibition, Kasumi-1 leukemia cells, 72 h; type: cell-based; details: Homo sapiens, Kasumi-1, 72 h; for IC50: read-out: IC50; for IC90: read-out: IC90
Experimental: as §1, with “with” for “with a”, “to a” for “to the”
as §2, with “leukemia” for “human solid tumor”, “the RPMI-1640” for “DMEM High Glucose”, “serum.” for “serum. The plate is placed in a carbon dioxide cell incubator (5% CO2) at 37° C. and incubated for 24 hours.”, “adding on the second day” for “adding”, “uniformly, placing” for “uniformly,”, “plate” for “plate is placed”

[3] = system: U87 MG (malignant glioma cell); test: MTT cell growth inhibition, U87 MG cells, 72 h; type: cell-based, human; details: for IC50 / IC90: Homo sapiens, U-87 MG, U87-MG, 72 h; for IC50: read-out: IC50; for IC90: read-out: IC90
Experimental: as §1, §2

[4] = system: Hela (human cervical cancer cell); test: MTT cell growth inhibition, Hela cells, 72 h; type: cell-based; details: Homo sapiens, HeLa, 72 h; for IC50: read-out: IC50; for IC90: read-out: IC90
Experimental: as §1, §2

[5] = system: CaES-17 (esophageal cancer cell); test: MTT cell growth inhibition, CaES-17 cells, 72 h; type: cell-based, human; details: Homo sapiens, CaEs17, CaEs-17, 72 h; for IC50: read-out: IC50; for IC90: read-out: IC90
Experimental: as §1, §2

[6] = system: H9 (acute lymphoblastic leukemia, ALL); test: MTT cell growth inhibition, H9 leukemia cells, 72 h; type: cell-based; details: H9, 72 h; for IC50: read-out: IC50; for IC90: read-out: IC90
Experimental: as §1, with “with” for “with a”, “to a” for “to the”
as §2, with “leukemia” for “human solid tumor”, “the RPMI-1640” for “DMEM High Glucose”, “serum.” for “serum. The plate is placed in a carbon dioxide cell incubator (5% CO2) at 37° C. and incubated for 24 hours.”, “adding on the second day” for “adding”, “uniformly, placing” for “uniformly,”, “plate” for “plate is placed”

[7] = system: Becap37 (human breast cancer cell); test: MTT cell growth inhibition, Becap37 cells, 72 h; type: cell-based; details: Homo sapiens, Becap-37, 72 h; for IC50: read-out: IC50; for IC90: read-out: IC90
Experimental: as §1, §2

[8] = system: PANC-1 (pancreatic cancer); test: MTT cell growth inhibition, PANC-1 cells, 72 h; type: cell-based, human; details: Homo sapiens, PANC-1, 72 h; for IC50: read-out: IC50; for IC90: read-out: IC90
Experimental: as §1, §2

[9] = system: Jurkat (acute lymphoblastic leukemia, ALL); test: MTT cell growth inhibition, Jurkat leukemia cells, 72 h; type: cell-based; details: Homo sapiens, 72 h; for IC50: read-out: IC50; for IC90: read-out: IC90
Experimental: as §1, with “with” for “with a”, “to a” for “to the”
as §2, with “leukemia” for “human solid tumor”, “the RPMI-1640” for “DMEM High Glucose”, “serum.” for “serum. The plate is placed in a carbon dioxide cell incubator (5% CO2) at 37° C. and incubated for 24 hours.”, “adding on the second day” for “adding”, “uniformly, placing” for “uniformly,”, “plate” for “plate is placed”

[10] = system: CNE (nasopharyngeal carcinoma cell); test: MTT cell growth inhibition, CNE cells, 72 h; type: cell-based, human; details: for IC50 / IC90: Homo sapiens, CNE, 72 h; for IC50: read-out: IC50; for IC90: read-out: IC90
Experimental: as §1, §2

[11] = system: SK-OV-3 (ovarian cancer cell); test: MTT cell growth inhibition, SK-OV-3 cells, 72 h; type: cell-based, human; details: Homo sapiens, SK-OV-3, 72 h; for IC50: read-out: IC50; for IC90: read-out: IC90
Experimental: as §1, §2

[12] = system: Hep-2 (laryngeal carcinoma); test: MTT cell growth inhibition, Hep-2 cells, 72 h; type: cell-based, human; details: Homo sapiens, HEp-2, 72 h; for IC50: read-out: IC50; for IC90: read-out: IC90
Experimental: as §1, §2

A549 (human lung cancer) = test: MTT cell growth inhibition, A549 cells, 72 h; type: cell-based; details: Homo sapiens, A549, 72 h; for IC50: read-out: IC50; for IC90: read-out: IC90
Experimental: as §1, §2

[13] = system: Hep G2 (human liver cancer cell); test: MTT cell growth inhibition, Hep G2 cells, 72 h; type: cell-based; details: Homo sapiens, HepG2, Hep G2, 72 h; for IC50: read-out: IC50; for IC90: read-out: IC90
Experimental: as §1, §2

MG63 (osteosarcoma) = test: MTT cell growth inhibition, MG63 cells, 72 h; type: cell-based, human; details: Homo sapiens, MG-63, 72 h; for IC50: read-out: IC50; for IC90: read-out: IC90
Experimental: as §1, §2

[14] = system: RPMI8226 (multiple myeloma); test: MTT cell growth inhibition, RPMI8226 multiple myeloma cells, 72 h; type: cell-based, human; details: Homo sapiens, RPMI 8226, 72 h; for IC50: read-out: IC50; for IC90: read-out: IC90
Experimental: as §1, with “with” for “with a”, “to a” for “to the”
as §2, with “leukemia” for “human solid tumor”, “the RPMI-1640” for “DMEM High Glucose”, “serum.” for “serum. The plate is placed in a carbon dioxide cell incubator (5% CO2) at 37° C. and incubated for 24 hours.”, “adding on the second day” for “adding”, “uniformly, placing” for “uniformly,”, “plate” for “plate is placed”

[15] = system: NB4 (acute promyelocytic leukemia, AML); test: MTT cell growth inhibition, NB4 leukemia cells, 72 h; type: cell-based; details: NB4, 72 h; for IC50: read-out: IC50; for IC90: read-out: IC90
Experimental: as §1, with “with” for “with a”, “to a” for “to the”
as §2, with “leukemia” for “human solid tumor”, “the RPMI-1640” for “DMEM High Glucose”, “serum.” for “serum. The plate is placed in a carbon dioxide cell incubator (5% CO2) at 37° C. and incubated for 24 hours.”, “adding on the second day” for “adding”, “uniformly, placing” for “uniformly,”, “plate” for “plate is placed”

[16] = system: K562/adr (drug-resistant, chronic myeloid leukemia, CML); test: MTT cell growth inhibition, K562/adr leukemia cells, 72 h; type: cell-based; details: Homo sapiens, K562/Adr; for IC50: read-out: IC50; for IC90: read-out: IC90
Experimental: as §1, with “with” for “with a”, “to a” for “to the”
as §2, with “leukemia” for “human solid tumor”, “the RPMI-1640” for “DMEM High Glucose”, “serum.” for “serum. The plate is placed in a carbon dioxide cell incubator (5% CO2) at 37° C. and incubated for 24 hours.”, “adding on the second day” for “adding”, “uniformly, placing” for “uniformly,”, “plate” for “plate is placed”

PC-3 (prostate cancer) = test: MTT cell growth inhibition, PC-3 cells, 72 h; type: cell-based, human; details: for IC50 / IC90: Homo sapiens, PC-3, 72 h; for IC50: read-out: IC50; for IC90: read-out: IC90
Experimental: as §1, §2

[17] = system: RKO (human colon adenocarcinoma cell); test: MTT cell growth inhibition, RKO cells, 72 h; type: cell-based; details: for IC50 / IC90: Homo sapiens, RKO, 72 h; for IC50: read-out: IC50; for IC90: read-out: IC90
Experimental: as §1, §2

IC50 [1]: 8.88 µg/mL (≈ 23 µM)
IC90 [1]: 23.9 µg/mL (≈ 61.9 µM)
IC50 [2]: > 16 µg/mL
IC90 [2]: > 16 µg/mL
IC50 [3]: 5.73 µg/mL (≈ 14.8 µM)
IC90 [3]: 19.2 µg/mL (≈ 49.6 µM)
IC50 [4]: 5.5 µg/mL (≈ 14.2 µM)
IC90 [4]: 22.2 µg/mL (≈ 57.4 µM)
IC50 [5]: 11 µg/mL (≈ 28.5 µM)
IC90 [5]: 28.8 µg/mL (≈ 74.5 µM)
IC50 [6]: 6.7 µg/mL (≈ 17.3 µM)
IC90 [6]: > 16 µg/mL
IC50 [7]: 9.34 µg/mL (≈ 24.1 µM)
IC90 [7]: > 16 µg/mL
IC50 [8]: 9.8 µg/mL (≈ 25.3 µM)
IC90 [8]: > 16 µg/mL
IC50 [9]: 4.83 µg/mL (≈ 12.5 µM)
IC90 [9]: 9.72 µg/mL (≈ 25.1 µM)
IC50 [10]: 10.5 µg/mL (≈ 27.1 µM)
IC90 [10]: > 16 µg/mL
IC50 [11]: > 16 µg/mL
IC90 [11]: > 16 µg/mL
IC50 [12]: 11.6 µg/mL (≈ 30.1 µM)
IC90 [12]: > 16 µg/mL
IC50 (A549 (human lung cancer)): 6.92 µg/mL (≈ 17.9 µM)
IC90 (A549 (human lung cancer)): > 16 µg/mL
IC50 [13]: 14.5 µg/mL (≈ 37.4 µM)
IC90 [13]: > 16 µg/mL
IC50 (MG63 (osteosarcoma)): 10.3 µg/mL (≈ 26.7 µM)
IC90 (MG63 (osteosarcoma)): > 16 µg/mL
IC50 [14]: 4 µg/mL (≈ 10.3 µM)
IC90 [14]: 16.1 µg/mL (≈ 41.5 µM)
IC50 [15]: 4.09 µg/mL (≈ 10.6 µM)
IC90 [15]: 11.2 µg/mL (≈ 29 µM)
IC50 [16]: 15.5 µg/mL (≈ 40.1 µM)
IC90 [16]: > 16 µg/mL
IC50 (PC-3 (prostate cancer)): > 16 µg/mL
IC90 (PC-3 (prostate cancer)): > 16 µg/mL
IC50 [17]: 5.01 µg/mL (≈ 13 µM)
IC90 [17]: > 16 µg/mL
Compound: Cc1c(-c2ccccc2Cl)oc2c1C(=O)C(=O)c1c-2ccc2c(C)cccc12 [BS-TA-04]
anti-U87 MG activity (in words) ([3]; Table 2): superior to that of tanshinone I per se

IC50 [1]: 4.65 µg/mL (≈ 16 µM)
IC90 [1]: 18.4 µg/mL (≈ 63.4 µM)
IC50 [2]: 9.66 µg/mL (≈ 33.3 µM)
IC90 [2]: 30.3 µg/mL (≈ 104 µM)
IC50 [3]: 6.63 µg/mL (≈ 22.8 µM)
IC90 [3]: 16.8 µg/mL (≈ 57.7 µM)
IC50 [4]: 4 µg/mL (≈ 13.8 µM)
IC90 [4]: > 16 µg/mL
IC50 [5]: 5.19 µg/mL (≈ 17.9 µM)
IC90 [5]: 20.4 µg/mL (≈ 70.3 µM)
IC50 [6]: 6.4 µg/mL (≈ 22 µM)
IC90 [6]: > 16 µg/mL
IC50 [7]: 3.96 µg/mL (≈ 13.6 µM)
IC90 [7]: > 16 µg/mL
IC50 [8]: 3.46 µg/mL (≈ 11.9 µM)
IC90 [8]: > 16 µg/mL
IC50 [9]: 1.88 µg/mL (≈ 6.48 µM)
IC90 [9]: 6.97 µg/mL (≈ 24 µM)
IC50 [10]: 3.9 µg/mL (≈ 13.4 µM)
IC90 [10]: 97 µg/mL (≈ 334 µM)
IC50 [11]: > 16 µg/mL
IC90 [11]: > 16 µg/mL
IC50 [12]: 9.17 µg/mL (≈ 31.6 µM)
IC90 [12]: > 16 µg/mL
IC50 (A549 (human lung cancer)): 6.45 µg/mL (≈ 22.2 µM)
IC90 (A549 (human lung cancer)): > 16 µg/mL
IC50 [13]: 5.48 µg/mL (≈ 18.9 µM)
IC90 [13]: > 16 µg/mL
IC50 (MG63 (osteosarcoma)): 3.18 µg/mL (≈ 11 µM)
IC90 (MG63 (osteosarcoma)): > 16 µg/mL
IC50 [14]: 2 µg/mL (≈ 6.89 µM)
IC90 [14]: 16.5 µg/mL (≈ 56.8 µM)
IC50 [15]: 1.13 µg/mL (≈ 3.89 µM)
IC90 [15]: 3.64 µg/mL (≈ 12.5 µM)
IC50 [16]: 8.84 µg/mL (≈ 30.4 µM)
IC90 [16]: 28.7 µg/mL (≈ 98.7 µM)
IC50 (PC-3 (prostate cancer)): 4.99 µg/mL (≈ 17.2 µM)
IC90 (PC-3 (prostate cancer)): 17.5 µg/mL (≈ 60.3 µM)
IC50 [17]: 1.35 µg/mL (≈ 4.65 µM)
IC90 [17]: > 16 µg/mL
Compound: Cc1oc2c(c1C)C(=O)C(=O)c1c-2ccc2c(C)cccc12 [BS-TA-03]
anti-CNE activity (in words) ([10]; Table 2): good activity
anti-PC-3 activity (in words) (PC-3 (prostate cancer); Table 2): good activity
anti-RKO activity (in words) ([17]; Table 2): good activity
